Values quoted from earlier work in paper PMC3015105 (Bioorganic & medicinal chemistry letters, 2010).

Columns and labels:
[1] = biological target: human dopamine transporter (hDAT) (Homo sapiens, UniProt Q01959); conditions: read-out: IC50 DAT inhibition; reported by Carroll
Sequence of human dopamine transporter (hDAT) (Q01959 whole entry): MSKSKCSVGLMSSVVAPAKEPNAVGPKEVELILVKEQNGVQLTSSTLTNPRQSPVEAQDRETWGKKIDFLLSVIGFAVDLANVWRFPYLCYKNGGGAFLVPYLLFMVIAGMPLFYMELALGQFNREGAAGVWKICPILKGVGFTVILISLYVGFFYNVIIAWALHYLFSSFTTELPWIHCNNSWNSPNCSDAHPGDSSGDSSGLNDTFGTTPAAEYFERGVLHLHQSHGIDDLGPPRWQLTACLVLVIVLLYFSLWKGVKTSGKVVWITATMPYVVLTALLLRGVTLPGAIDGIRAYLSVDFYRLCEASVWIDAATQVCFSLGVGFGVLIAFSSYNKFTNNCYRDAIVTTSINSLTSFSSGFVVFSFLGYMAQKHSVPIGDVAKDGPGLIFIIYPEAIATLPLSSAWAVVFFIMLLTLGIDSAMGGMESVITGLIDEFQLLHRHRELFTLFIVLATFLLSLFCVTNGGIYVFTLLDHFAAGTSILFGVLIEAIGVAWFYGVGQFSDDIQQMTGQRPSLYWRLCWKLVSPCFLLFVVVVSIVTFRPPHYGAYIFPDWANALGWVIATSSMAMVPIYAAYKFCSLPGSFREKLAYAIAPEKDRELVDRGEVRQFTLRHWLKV

SMILES | IC50 [1] [nM] | duration of action [min] | immediate effect (onset) [s]
Cc1cc(C2C3CCC(CC2c2ccc(Cl)cc2)S3)on1 (stereo not drawn) [2β-(3-methylisoxazol-5-yl)-3β-(4-chlorophenyl)-8-thiabicyclo[3.2.1]octane] | 0.59 | – | –
COC(=O)[C@H]1[C@@H](OC(=O)c2ccccc2)C[C@@H]2CC[C@H]1N2C [Cocaine] | – | 10 to 15 | < 15
